Experimental data reported in US20080221086A1, “Novel Inhibitors of Glutaminyl Cyclase” (PROBIODRUG AG, priority 2006, published 2008).

Molecular target: hQC (Homo sapiens, UniProt Q16769)
Assay: Fluorometric assay of glutaminyl cyclase (QC) inhibition, H-Gln-βNA or H-Gln-AMC substrate
Format: biochemical
Conditions: read-out: IC50
In short: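 Fluorometric coupled assays at 30° C in Tris/HCl pH 8.0 with EDTA and pyroglutamyl aminopeptidase used either 0.2 mM H-Gln-βNA (320/410 nm) or H-Gln-AMC (380/460 nm), started by QC. Screening used 4 mM inhibitor at substrate 1 KM. Ki came from fitting progress curves to competitive inhibition.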

Sequence of hQC (Q16769 29-361): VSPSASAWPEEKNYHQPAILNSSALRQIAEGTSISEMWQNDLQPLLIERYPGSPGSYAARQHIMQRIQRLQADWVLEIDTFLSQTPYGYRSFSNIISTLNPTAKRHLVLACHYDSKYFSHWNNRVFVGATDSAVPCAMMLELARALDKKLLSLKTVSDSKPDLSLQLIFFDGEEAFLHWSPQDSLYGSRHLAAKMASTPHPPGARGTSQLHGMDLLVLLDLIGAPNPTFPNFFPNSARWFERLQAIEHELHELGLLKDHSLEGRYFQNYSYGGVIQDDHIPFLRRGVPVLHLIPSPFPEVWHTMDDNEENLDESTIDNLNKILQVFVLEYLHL

SMILES	IC50 [µM]
Cc1ccc2occ(C3/C(=N/CCCN4CCCC4=O)NC(=O)N3c3ccc4[nH]cnc4c3)c(=O)c2c1 (stereo not shown) [Compound 267, 1-(1H-Benzoimidazol-5-yl)-5-(6-methyl-4-oxo-4H-chromen-3-yl)-4-3-(2-oxo-pyrrolidin-1-yl)-propylimino-imidazolidin-2-one]	4.9
COC(=O)C(C)/N=C1/NC(=S)N(c2ccc3[nH]cnc3c2)C1c1c(F)ccc(Cl)c1F (stereo not shown) [Compound 268, Methyl 2-(1-(1H-benzo[d]imidazol-5-yl)-5-(3-chloro-2,6-difluorophenyl)-2-thioxoimidazolidin-4-ylideneamino)propanoate]	9.4
C/N=C1/NC(=O)N(c2ccc3[nH]cnc3c2)C1c1ccc(N2CCCC2)cc1 (stereo not shown) [Compound 269, 1-(1H-Benzoimidazol-5-yl)-4-methylimino-5-(4-pyrrolidin-1-yl-phenyl)-imidazolidin-2-one]	3.1
O=C(C/N=C1/NC(=S)N(c2ccc3[nH]cnc3c2)C1c1ccnc2ccccc12)N1CCC(O)CC1 (stereo not shown) [Compound 270, 2-(1-(1H-benzo[d]imidazol-5-yl)-5-(quinolin-4-yl)-2-thioxoimidazolidin-4-ylideneamino)-1-(4-hydroxypiperidin-1-yl)ethanone]	1.3
O=C1N/C(=N/Cn2nnc3ccccc32)C(c2ccc3nsnc3c2)N1c1ccc2[nH]cnc2c1 (stereo not shown) [Compound 271, 1-(1H-Benzoimidazol-5-yl)-5-benzo[c][1,2,5]thiadiazol-5-yl-4-benzotriazol-1-ylmethylimino-imidazolidin-2-one]	0.4
S=C1N/C(=N\C2CCCC2)C(c2ccc(Cl)cc2)N1c1ccc2[nH]cnc2c1 (stereo not shown) [Compound 272, 1-(1H-Benzoimidazol-5-yl)-5-(4-chloro-phenyl)-4-cyclopentylimino-imidazolidine-2-thione]	8.5
CC1=CC(C)C(C2/C(=N/C3CCc4ccccc43)NC(=S)N2c2ccc3[nH]cnc3c2)CC1 (stereo not shown) [Compound 273, 1-(1H-Benzoimidazol-5-yl)-5-(2,4-dimethyl-cyclohex-3-enyl)-4-indan-1-ylimino-imidazolidine-2-thione]	7.6
CC1=CC(C)C(C2/C(=N/CCCN3CCCC3=O)NC(=O)N2c2ccc3[nH]cnc3c2)CC1 (stereo not shown) [Compound 275, 1-(1H-Benzoimidazol-5-yl)-5-(2,4-dimethyl-cyclohex-3-enyl)-4-3-(2-oxo-pyrrolidin-1-yl)-propylimino-imidazolidin-2-one]	4
CC1=CC(C)C(C2/C(=N/C(C)C(C)(C)C)NC(=S)N2c2ccc3nc[nH]c3c2)CC1 (stereo not shown) [Compound 276, 1-(1H-Benzoimidazol-5-yl)-5-(2,4-dimethyl-cyclohex-3-enyl)-4-1,2,2-trimethyl-propylimino-imidazolidine-2-thione]	7.6
Cc1cccc(C2/C(=N\Cn3nnc4ccccc43)NC(=S)N2c2ccc3nc[nH]c3c2)n1 (stereo not shown) [Compound 277, 1-(3H-Benzoimidazol-5-yl)-4-benzotriazol-1-ylmethylimino-5-(6-methyl-pyridin-2-yl)-imidazolidine-2-thione]	4
S=C1N/C(=N\C2CCCc3ccccc32)C(c2ccccc2Cl)N1c1ccc2[nH]cnc2c1 (stereo not shown) [Compound 278, 1-(1H-Benzoimidazol-5-yl)-5-(2-chloro-phenyl)-4-1,2,3,4-tetrahydro-napthalen-1-ylimino-imidazolidine-2-thione]	6.7
S=C1NC(=NCn2nnc3ccccc32)C(c2ccnc3ccccc23)N1c1ccc2nc[nH]c2c1 (stereo not shown) [Compound 279, 1-(3H-Benzoimidazol-5-yl)-4-benzotriazol-1-ylmethylimino-5-quinolin-4-yl-imidazolidine-2-thione]	2.2
CN(C)c1ccc(C2/C(=N\Cn3nnc4ccccc43)NC(=S)N2c2ccc3[nH]cnc3c2)cc1 (stereo not shown) [Compound 280, 1-(1H-Benzoimidazol-5-yl)-4-benzotriazol-1-ylmethylimino-5-(4-dimethylamino-phenyl)-imidazolidine-2-thione]	1.3
O=C(CN=C1NC(=O)N(c2ccc3[nH]cnc3c2)C1c1ccc(Cl)c(F)c1)N1CCC(O)C1 (stereo not shown) [Compound 281, 1-(1H-Benzoimidazol-5-yl)-5-(4-chloro-3-fluoro-phenyl)-4-2-(3-hydroxy-pyrrolidin-1-yl)-2-oxo-ethylimino-imidazolidin-2-one]	6.7
O=C(C/N=C1/NC(=O)N(c2ccc3[nH]cnc3c2)C1c1ccc2nsnc2c1)N1CCC(O)C1 (stereo not shown) [Compound 282, 1-(1H-Benzoimidazol-5-yl)-5-benzo[c][1,2,5]thiadiazol-5-yl-4-2-(3-hydroxy-pyrrolidin-1-yl)-2-oxo-ethylimino-imidazolidin-2-one]	4.9
Cc1ccc(C2/C(=N/C3CCCCCC3)NC(=O)N2c2ccc3nc[nH]c3c2)c(C)c1 (stereo not shown) [Compound 283, 1-(3H-Benzoimidazol-5-yl)-4-cycloheptylimino-5-(2,4-dimethyl-phenyl)-imidazolidin-2-one]	0.4
S=C1N/C(=N/CCCc2ccccc2)C(c2ccc3[nH]ccc3c2)N1c1ccc2[nH]cnc2c1 (stereo not shown) [Compound 284, 1-(1H-Benzoimidazol-5-yl)-5-(1H-indol-5-yl)-4-3-phenyl-propylimino-imidazolidine-2-thione]	1.3

SMILES	IC50 [µM]
Cc1cccc(C2/C(=N\Cn3nnc4ccccc43)NC(=S)N2c2ccc3[nH]cnc3c2)c1 (stereo not shown) [Compound 285, 1-(1H-Benzoimidazol-5-yl)-4-benzotriazol-1-ylmethylimino-5-m-tolyl-imidazolidine-2-thione]	1.3
CC(C)(C)CC(C)(C)/N=C1\CN(c2ccc3nc[nH]c3c2)C(=S)N1 [Compound 286, 1-(3H-Benzoimidazol-5-yl)-4-1,1,3,3-tetramethyl-butylimino-imidazolidine-2-thione]	5.8
CCc1ccccc1/N=C1\NC(=O)N(c2ccc3[nH]cnc3c2)C1c1ccc2c(c1)OCO2 (stereo not shown) [Compound 287, 5-Benzo1,3dioxol-5-yl-1-(1H-benzoimidazol-5-yl)-4-2-ethyl-phenylimino-imidazolidin-2-one]	3.1
CCc1ccccc1/N=C1\NC(=S)N(c2ccc3nc[nH]c3c2)C1C1CCC(C)=CC1C (stereo not shown) [Compound 288, 1-(3H-Benzoimidazol-5-yl)-5-(2,4-dimethyl-cyclohex-3-enyl)-4-2-ethyl-phenylimino-imidazolidine-2-thione]	7.6
O=C1CCCN1CCC/N=C1/NC(=O)N(c2ccc3[nH]cnc3c2)C1c1ccc2[nH]ccc2c1 (stereo not shown) [Compound 289, 1-(1H-benzoimidazol-5-yl)-5-(1H-indol-5-yl)-4-3-(2-oxo-pyrrolidin-1-yl)-propylimino-imidazolidin-2-one]	0.004
COC(=O)C(C)N=C1NC(=O)N(c2ccc3[nH]cnc3c2)C1c1c(F)cc(Cl)cc1F (stereo not shown) [Compound 290, Methyl 2-(1-(1H-benzo[d]imidazol-5-yl)-5-(4-chloro-2,6-difluorophenyl)-2-oxoimidazolidin-4-ylideneamino)propanoate]	0.4
S=C1NC(=Nc2ccccc2Br)C(c2ccc3[nH]ccc3c2)N1c1ccc2nc[nH]c2c1 (stereo not shown) [Compound 291, 1-(3H-Benzoimidazol-5-yl)-4-2-bromo-phenylimino-5-(1H-indol-5-yl)-imidazolidine-2-thione]	4
O=C1N/C(=N\c2ccc3c(c2)OCCO3)C(c2ccc3c(c2)OCO3)N1c1ccc2[nH]cnc2c1 (stereo not shown) [Compound 292, 5-Benzo1,3dioxol-5-yl-1-(1H-benzoimidazol-5-yl)-4-2,3-dihydro-benzo1,4dioxin-6-ylimino-imidazolidin-2-one]	1.3
Cc1ccc(C2/C(=N/C(C)(C)CC(C)(C)C)NC(=O)N2c2ccc3nc[nH]c3c2)cc1 (stereo not shown) [Compound 293, 1-(3H-Benzoimidazol-5-yl)-4,1,1,3,3-tetramethyl-butylimino-5-p-tolyl-imidazolidin-2-one]	5.8
CC1=CC(C)C(C2C(=NCC(=O)N3CCSCC3)NC(=O)N2c2ccc3[nH]cnc3c2)CC1 (stereo not shown) [Compound 294, 1-(1H-Benzoimidazol-5-yl)-5-(2,4-dimethyl-cyclohex-3-enyl)-4-2-oxo-2-thiomorpholin-4-yl-ethylimino-imidazolidin-2-one]	1.3
O=C1N/C(=N/CCN2CCOCC2)C(c2cc(Br)cc(Br)c2)N1c1ccc2nc[nH]c2c1 (stereo not shown) [Compound 296, 1-(3H-Benzoimidazol-5-yl)-5-(3,5-dibromo-phenyl)-4-2-morpholin-4-yl-ethylimino-imidazolidin-2-one]	4.9
O=C1N/C(=N\C2CCCCC2O)C(c2coc3ccccc3c2=O)N1c1ccc2[nH]cnc2c1 (stereo not shown) [Compound 297, 1-(1H-Benzoimidazol-5-yl)-4-2-hydroxy-cyclohexylimino-5-(4-oxo-4H-chromen-3-yl)-imidazolidin-2-one]	9.4
CC(C)CC(C)N=C1NC(=O)N(c2ccc3[nH]cnc3c2)C1c1ccccc1C(F)(F)F (stereo not shown) [Compound 298, 1-(1H-Benzoimidazol-5-yl)-4-1,3-dimethyl-butylimino-5-(2-trifluoromethyl-phenyl)-imidazolidin-2-one]	6.7
Cc1cccc(C2/C(=N/c3cc(Cl)ccc3Cl)NC(=S)N2c2ccc3[nH]cnc3c2)c1 (stereo not shown) [Compound 299, 1-(1H-Benzoimidazol-5-yl)-4-2,5-dichloro-phenylimino-5-m-tolyl-imidazolidine-2-thione]	7.6
CC1=CC(C)C(C2/C(=N/c3ccccc3Br)NC(=S)N2c2ccc3[nH]cnc3c2)CC1 (stereo not shown) [Compound 300, 1-(1H-Benzoimidazol-5-yl)-4-2-bromo-phenylimino-5-(2,4-dimethyl-cyclohex-3-enyl)-imidazolidine-2-thione]	9.4
O=C1N/C(=N\C2CCCCCC2)C(c2cc(Br)cc(Br)c2)N1c1ccc2nc[nH]c2c1 (stereo not shown) [Compound 301, 1-(3H-Benzoimidazol-5-yl)-4-cycloheptylimino-5-(3,5-dibromo-phenyl)-imidazolidin-2-one]	0.004
O=C(C/N=C1/NC(=O)N(c2ccc3[nH]cnc3c2)C1c1ccc(Cl)c(F)c1)N1CCCCC1 (stereo not shown) [Compound 302, 1-(1H-Benzoimidazol-5-yl)-5-(4-chloro-3-fluoro-phenyl)-4-2-oxo-2-piperidin-1-yl-ethylimino-imidazolidin-2-one]	3.1
